Structures can show the parent of a compound that is named as a salt.
Tests used:
bio-availability = conditions: in vivo
solubility in water = assay type: physicochemical; conditions: in comparison with the free base

Question: Which bio-availability (bio-availability) does the source give for `CC1Oc2c(cccc2N2CCN(CCCc3c[nH]c4ccc(F)cc34)CC2)NC1=O` (centres unmarked) [mesylate, 8-{4-[3-(5-fluoro-1H-indol-3-yl)-propyl]-piperazin-1-yl}-2-methyl-4H-benzo[1,4]oxazin-3-one mesylate] here?
Answer: The bio-availability was “good”.

Question: What about the solubility in water (solubility in water) of the same molecule?
Answer: Its solubility in water is “much better soluable in water than the free base”.

Source: patent publication US8106044B2, “8-{4-[3-(5-fluoro-1H-indol-3-yl)-propyl]-piperazin-1-yl}-2-methyl-4H-benzo[1,4]oxazin-3-one mesylate with high affinity for the dopamine D2 receptor and the serotonin reuptake site” (Solvay Pharmaceuticals B.V., priority 2001, dated 2012)
